This is an account of results in publication PMC2190180 (The Journal of Experimental Medicine, 1976).

The test system of test [1] is rabbit peritoneal neutrophils. The conditions noted are these: cited from earlier work.
Test [2] has as its system rabbit peritoneal neutrophils. The test is described as follows: Assay of relative migratory. The format is cell-based. The note with it: for activity relative to F-Met-Leu as stated in running text: rounded in text from Table II; for times as active as F-Met-Leu, experiment of Fig. 1: single representative experiment (Fig. 1).
Test [3] concerns rabbit neutrophils. The format is cell-based. The conditions noted are these: for beta-Glucuronidase release Relative activity ± SE: Table III, relative to F-Met-Leu = 1.0; for induction of beta-glucuronidase release at highest concentrations: at concentrations of 1 x 10-~ M or higher (so in the source).
The subject of test [4] is rabbit neutrophils. The class given is cell-based. The note with it: for induction of lysozyme release at highest concentrations: at concentrations of 1 x 10-~ M or higher (so in the source).
A further test deals with neutrophils. The conditions noted are these: appears competitive; cited from earlier work.
The test system of test [5] is rabbit peritoneal neutrophils. Description: Test of whether the peptides are chemotactic. The format is cell-based. The conditions noted are these: for nature of induced migration: directed as well as random locomotion.

In the case of `CC(C)C[C@H](NC=O)C(=O)O` [F-leucine], in test [1] (not as active as F-methionine), the chemotactic activity entry is “chemotactic”.
Turning to F-Leu-Trp-Met-Arg, in test [2] (chemotactic activity), the “drop in activity relative to F-Leu-Trp-Met” value came out at 40 fold.
As to F-Met, in the test on rabbit neutrophils [3], the “beta-Glucuronidase release Relative activity ± SE” value is on record as above 0.00001 and the “induction of beta-glucuronidase release at highest concentrations” value (“induction of beta-glucuronidase release” below) is reported as “did not induce release”. Also, the “induction of lysozyme release at highest concentrations” value (“induction of lysozyme release” for short) in the test with rabbit neutrophils [4] is “did not induce release”.
Consider F-Met-Glu, for which the “chemotactic activity compared with F-Met-Leu” value in test [1] is on record as “distinctly less active”.
Regarding F-Met-His, in test [1], the “chemotactic activity compared with F-Met-Leu” value was “distinctly less active”.
In the case of F-Met-Leu, in the test on neutrophils, the “effect on initial rates of erythrophagocytosis” value is “inhibit”. In addition, in the test on rabbit neutrophils [3], the “beta-Glucuronidase release Relative activity ± SE” value amounted to 1. For the same compound, in the test with rabbit neutrophils [4] (Table III, relative to F-Met-Leu = 1.0), the “Lysozyme release Relative activity ± SE” value is given as 1.
For F-Met-Leu-Arg, the “activity relative to F-Met-Leu as stated in running text” value (“activity relative to F-Met-Leu” below) in test [2] (chemotactic activity) was “one-third”.
F-Met-Leu-Glu: the “times as active as F-Met-Leu, experiment of Fig. 1” value (from here on “times as active as F-Met-Leu”) in test [2] is 0.71.
As to F-Met-Leu-Leu, in test [2] (chemotactic activity), the “activity relative to F-Met-Leu” value was 9 fold.
Turning to F-Met-Leu-Phe, the “fold more active than the corresponding unformylated peptide” value in test [2] (chemotactic activity) is reported as “approximately 10,000 fold”. Besides, the “activity relative to F-Met-Leu” value in test [2] (chemotactic activity) is reported as 5,000 fold. In test [2], the “times as active as F-Met-Leu” value is 7,300. Also, the “measured mean distance from top of filter to front two PMNs” value (“measured mean distance from top” for short) in test [5] (Table I A, uniform 1.66 x 10^-10 M above and below, 60 min 37C) is on record as 71 µm; in test [5] (Table I A, uniform 1.85 x 10-11 M above and below, 60 min 37C), 40 µm; in test [5] (Table I A, uniform 5 x 10^-10 M above and below, 60 min 37C) it was 73 µm; in test [5] (Table I A, uniform 5.55 x 10-11 M above and below, 60 min 37C), 60 µm. In addition, the “nature of induced migration” value in test [5] is “truly chemotactic”.
For F-Met-Met-Ala, in test [2] (chemotactic activity), the “activity relative to F-Met-Met (Discussion)” value is listed as “essentially the same” and the “activity relative to parent dipeptide F-Met-Met (Results)” value is reported as “same activity”.
For the compound F-Met-Met-Met, the “activity relative to parent dipeptide F-Met-Met (Results)” value in test [2] (chemotactic activity) is 120- to 150 fold. Also, the “fold more active than the corresponding unformylated peptide” value in test [2] (chemotactic activity) was “approximately 20,000 fold”. Further, the “measured mean distance from top” value in test [5] (Table I B, above 10^-6 M, below 10^-6 M (uniform), 80 min 37C) is 56 µm; in test [5] (Table I B, above 10^-6 M, below 10^-7 M, 80 min 37C), 48 µm; in test [5] (Table I B, above 10^-6 M, below 10^-8 M, 80 min 37C), 34 µm; in test [5] (Table I B, above 10^-6 M, below 10^-9 M, 80 min 37C) it was 38 µm; in test [5] (Table I B, above 10^-7 M, below 10^-6 M, 80 min 37C), 60 µm; in test [5] (Table I B, above 10^-7 M, below 10^-7 M (uniform), 80 min 37C) it was 34 µm. Besides, the “measured mean distance from top” value in test [5] (Table I B, above 10^-7 M, below 10^-8 M, 80 min 37C) is given as 36 µm; in test [5] (Table I B, above 10^-7 M, below 10^-9 M, 80 min 37C), 34 µm; in test [5] (Table I B, above 10^-8 M, below 10^-6 M, 80 min 37C), 62 µm; in test [5] (Table I B, above 10^-8 M, below 10^-7 M, 80 min 37C), 47 µm; in test [5] (Table I B, above 10^-8 M, below 10^-8 M (uniform), 80 min 37C), 30 µm; in test [5] (Table I B, above 10^-8 M, below 10^-9 M, 80 min 37C), 27 µm. In addition, the “measured mean distance from top” value in test [5] (Table I B, above 10^-9 M, below 10^-6 M, 80 min 37C) was determined as 69 µm; in test [5] (Table I B, above 10^-9 M, below 10^-7 M, 80 min 37C) it was 57 µm; in test [5] (Table I B, above 10^-9 M, below 10^-8 M, 80 min 37C) it was 30 µm. In addition, the “calculated distance for purely random migration (bracketed)” value in test [5] (Table I B, above 10^-6 M, below 10^-7 M) is 52 µm; in test [5] (Table I B, above 10^-6 M, below 10^-8 M), 52 µm; in test [5] (Table I B, above 10^-6 M, below 10^-9 M) it was 52 µm; in test [5] (Table I B, above 10^-7 M, below 10^-6 M), 38 µm; in test [5] (Table I B, above 10^-7 M, below 10^-8 M) it was 34 µm; in test [5] (Table I B, above 10^-7 M, below 10^-9 M), 33 µm. Also, the “calculated distance for purely random migration (bracketed)” value in test [5] (Table I B, above 10^-8 M, below 10^-6 M) is listed as 35 µm; in test [5] (Table I B, above 10^-8 M, below 10^-7 M), 30 µm; in test [5] (Table I B, above 10^-8 M, below 10^-9 M) it was 30 µm; in test [5] (Table I B, above 10^-9 M, below 10^-6 M), 35 µm; in test [5] (Table I B, above 10^-9 M, below 10^-7 M), 30 µm; in test [5] (Table I B, above 10^-9 M, below 10^-8 M) it was 27 µm. The “nature of induced migration” value in test [5] is “truly chemotactic”.
As to F-Met-Met-Phe, in test [2] (chemotactic activity), the “activity relative to parent dipeptide F-Met-Met (Results)” value is recorded as 3,500-4,000 fold.
As to F-Met-Phe-Leu, the “fold more active than the corresponding unformylated peptide” value in test [2] (chemotactic activity) is recorded as “around 3,000 fold”.
Take Met-Leu-Glu: the “times less active than F-Met-Leu-Phe” value in test [2] (induced migration and enzyme release) was 26 million. Moreover, the “induction of beta-glucuronidase release” value in the test on rabbit neutrophils [3] is given as “did not induce release”. Besides, the “induction of lysozyme release” value in the test on rabbit neutrophils [4] is recorded as “did not induce release”.
Consider Met-Leu-Leu, for which, in the test on rabbit neutrophils [3], the “beta-Glucuronidase release Relative activity ± SE” value is above 0.0001 and the “induction of beta-glucuronidase release” value is “did not induce release”. Besides, the “induction of lysozyme release” value in the test on rabbit neutrophils [4] was “did not induce release”.
As for Met-Leu-Phe, the “times as active as F-Met-Leu” value in test [2] amounted to 0.43.
In the case of Met-Met-Ala, in the test with rabbit neutrophils [3], the “beta-Glucuronidase release Relative activity ± SE” value is reported as above 0.0001 and the “induction of beta-glucuronidase release” value was “did not induce release”. In the test with rabbit neutrophils [4], the “induction of lysozyme release” value is “did not induce release”.
In the case of Met-Phe-Leu, in the test on rabbit neutrophils [3], the “beta-Glucuronidase release Relative activity ± SE” value is above 0.0001 and the “induction of beta-glucuronidase release” value was “did not induce release”. For the same compound, the “induction of lysozyme release” value with rabbit neutrophils [4] was “did not induce release”.
